For nine molecules, Kd results are on record in EP4667483A1, “HUMAN TRANSFERRIN RECEPTOR-BINDING PEPTIDE” (JCR Pharmaceuticals Co., Ltd., priority 2023, dated 2024).

Numbered stars: 1 amine (or outer) side, 2 acyl side, 3 side chain; on linkers, the order of the positions; unused ones are H or OH. Bridge positions count the residues as written; N and C are the ends. Square brackets hold non-standard residues; d marks the D form. Side chains are listed from the residue outwards. Peptide text beside a SMILES is read from it. * marks the point of attachment. Trp(1-CH2COOH) = N[C@@H](Cc1cn(CC(=O)O)c2ccccc12)C(=O)O; Nle(6-morpholino) = N[C@@H](CCCCN1CCOCC1)C(=O)O; Trp(7-aza) = N[C@@H](Cc1c[nH]c2ncccc12)C(=O)O; NMePhe(3-Cl) = CN[C@@H](Cc1cccc(Cl)c1)C(=O)O; Piperazinyl(4-CH2COOH) = O=C(O)CN1CCN(*)CC1; 3Pal(6-NH2) = Nc1ccc(C[C@H](N)C(=O)O)cn1; NMeW = CN[C@@H](Cc1c[nH]c2ccccc12)C(=O)O; NMeY = CN[C@@H](Cc1ccc(O)cc1)C(=O)O; 4Pal = N[C@@H](Cc1ccncc1)C(=O)O; PEG4 = NCCOCCOCCOCCOCCC(=O)O; CO = O=C([*:1])[*:2]

Test [1] addresses T1, human transferrin receptor (hTfR) (Homo sapiens, UniProt P02786). The test is described as follows: SPR measurement under pH 7.4 conditions (Biacore T200, CM3 chip, hTfR captured by His Tag antibody). It is filed as binding. Particulars: pH 7.4, single-cycle kinetics; read-out: hTfR SPR pH7.4 KD. As for the experimental part:
(§1) Molecular interactions between the synthesized peptides and the transferrin receptor (hTfR) were evaluated by surface plasmon resonance (SPR) using the following method. The specific assay procedure is described below.
An CM3 sensor chip (Cytiva) was inserted into BiacoreT200 (Cytiva), then a priming operation was performed three times by using a running buffer: HBS-P+, pH7.4 (Cytiva), and an equilibrium state was created at a flow rate of […]. Ligand immobilization was performed at a flow rate of 10 µL/min. After mixing 50 µL each of 60 mM EDC solution (Cytiva) and 650 mM NHS solution (Cytiva), the mixture was reacted at a flow rate of 10 µL/min for 420 seconds. 150 µL of […] THE His Tag Antibody, mAb, Mouse (GenScript) was prepared by diluting with 10 mM acetic acid solution (pH 5.0), and reacted at a flow rate of 10 µL/ min for 420 seconds. Then, THE His Tag Antibody, mAb, Mouse (GenScript) was immobilized as a capture molecule on the CM3 sensor chip. After immobilization, capping was performed by reacting with 1.0 M ethanolamine solution (Cytiva) at a flow rate of 10 µL/min for 420 seconds. 300 nM hTfR was captured at a flow rate of 10 µL/min, a peptide solution prepared at 10 mM in DMSO was diluted with running buffer to achieve a final concentration of 10 µM, and peptide solutions at 250 nM, 125 nM, 62.5 nM, 25 nM, and 12.5 nM were prepared. . The peptide samples were reacted at a flow late of 30 µL/min for 120 seconds, followed by dissociation for 600 seconds. The kinetics of the peptide against hTfR was obtained by SPR measurement for the above samples.
(§2) The kinetic evaluation model was single-cycle kinetics, and curve fitting was performed using Biacore T200 Evaluation Software Version 3.0 (Cytiva). The binding of the peptide to hTfR was evaluated by performing curve fitting on the obtained sensorgram by the least squares method and obtaining the kon value, the koff value, and the KD value.
Background: In SPR one partner is held on a chip, and binding of the other changes the refractive index at the surface.

The target of test [2] is T1, human transferrin receptor (hTfR). The test is described as follows: SPR measurement under pH 6.0 conditions (Biacore T200, NTA chip, immobilized hTfR). Particulars: read-out: hTfR SPR pH6.0 KD. It is filed as binding. On the procedure: as §1
An NTA sensor chip (Cytiva) was inserted in a Biacore T200 (Cytiva), a priming operation was performed 3 times with a running buffer: HBS-P+ pH 6.0 (Cytiva), and an equilibrium state was created at a flow rate of 30 µL/min. A ligand immobilization operation was carried out at a flow rate of 10 µL/min.
The surface of the NTA sensor chip was washed with 350 mM EDTA solution, nickel ions were loaded into the carbomethyldextran chains of the sensor chip with a 500 µM aqueous nickel chloride solution, and then washing was performed with 3 mM EDTA solution. After mixing 50 µL of each of 60 mM EDC solution (Cytiva) and 650 mM NHS solution (Cytiva), the mixture was reacted for 420 seconds at a flow rate of 10 µL/min. 150 µL of 0.2 µM hTfR solution was prepared by diluting with 10 mM acetic acid solution (pH 5.0), and reacted for 420 seconds at a flow rate of 10 µL/min to immobilize hTfR on the NTA sensor chip. For the human transferrin receptor (hTfR), the recombinant hTfR described in Example 2 of WO2018/124121 was used. After immobilization, capping was performed by reacting with 1.0 M ethanolamine aqueous solution (Cytiva) at a flow rate of 10 µL/min for 420 seconds. Peptide lysate prepared in DMSO to 10 mM was diluted with the running buffer to a final concentration of 10 µM peptide lysate, and then peptide solutions of 250 nM, 125 nM, 62.5 nM, 25 nM, and 12.5 nM were prepared. The kinetics of the peptide against hTfR was obtained by SPR measurement using the above samples.
as §2

T1 sequence (P02786 whole entry): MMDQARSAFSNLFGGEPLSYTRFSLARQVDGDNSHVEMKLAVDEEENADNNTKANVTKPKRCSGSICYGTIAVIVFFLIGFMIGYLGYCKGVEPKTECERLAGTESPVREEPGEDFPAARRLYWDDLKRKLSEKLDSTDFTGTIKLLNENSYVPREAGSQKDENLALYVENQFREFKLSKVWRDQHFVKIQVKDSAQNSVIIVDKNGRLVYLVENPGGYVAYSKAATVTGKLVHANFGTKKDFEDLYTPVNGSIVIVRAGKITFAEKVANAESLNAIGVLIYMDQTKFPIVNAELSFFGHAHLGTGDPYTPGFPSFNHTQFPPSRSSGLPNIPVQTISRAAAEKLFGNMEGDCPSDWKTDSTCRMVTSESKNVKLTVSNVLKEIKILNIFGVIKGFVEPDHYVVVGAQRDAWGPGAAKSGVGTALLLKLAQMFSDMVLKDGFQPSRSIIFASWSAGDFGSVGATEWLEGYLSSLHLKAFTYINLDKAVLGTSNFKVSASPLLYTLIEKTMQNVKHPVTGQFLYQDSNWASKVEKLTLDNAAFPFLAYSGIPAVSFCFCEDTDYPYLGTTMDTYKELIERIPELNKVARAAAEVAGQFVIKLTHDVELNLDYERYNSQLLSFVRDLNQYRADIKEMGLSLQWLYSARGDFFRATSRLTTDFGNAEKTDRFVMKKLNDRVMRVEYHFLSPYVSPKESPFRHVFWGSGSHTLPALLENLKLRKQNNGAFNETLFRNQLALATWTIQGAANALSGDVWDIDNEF

Turning to `CC[C@H](C)[C@@H]1NC(=O)[C@H](Cc2ccc(OC)cc2)NC(=O)[C@H](Cc2ccc(N)nc2)NC(=O)[C@H](CC(N)=O)NC(=O)[C@H](Cc2c[nH]c3ncccc23)NC(=O)[C@H](C(C)C)NC(=O)[C@H](Cc2cccc(Cl)c2)N(C)C(=O)[C@H](C(C)C)NC(=O)[C@H](C)NC(=O)CSC[C@@H](C(=O)NCCOCCOCCOCCOCCC(N)=O)NC(=O)[C@H](Cc2ccc(O)cc2)N(C)C(=O)[C@H](Cc2ccncc2)NC(=O)[C@H](CCCNC(=N)N)NC(=O)[C@H](CCCNC(=N)N)NC(=O)[C@H]([C@@H](C)CC)NC1=O` [compound 1], the Kd in test [1] was 1.56 nM; in test [2] (pH 6.0, single-cycle kinetics) it was 18.2 nM.

On to `CC[C@H](C)[C@@H]1NC(=O)[C@H](Cc2ccc(OC)cc2)NC(=O)[C@H](Cc2ccc(N)nc2)NC(=O)[C@H](CC(N)=O)NC(=O)[C@H](Cc2c[nH]c3ncccc23)NC(=O)[C@H](C(C)C)NC(=O)[C@H](Cc2cccc(Cl)c2)N(C)C(=O)[C@H](C(C)C)NC(=O)[C@H](C)NC(=O)CSC[C@@H](C(=O)NCCOCCOCCOCCOCCC(N)=O)NC(=O)[C@H](Cc2ccc(O)cc2)N(C)C(=O)[C@H](Cc2ccncc2)NC(=O)[C@H](CCCNC(=N)N)NC(=O)[C@H](CCCCN2CCOCC2)NC(=O)[C@H]([C@@H](C)CC)NC1=O` [compound 2] ({CH2CO}-AV[NMePhe(3-Cl)]V[Trp(7-aza)]N[3Pal(6-NH2)]Y(Me)II[Nle(6-morpholino)]R[4Pal][NMeY]C[PEG4]-NH2; thioether N-15), for which the Kd in test [1] was determined as 0.888 nM; in test [2] (pH 6.0, single-cycle kinetics) it was 16.2 nM.

As for `CC[C@H](C)[C@@H]1NC(=O)[C@H](Cc2ccc(OC)cc2)NC(=O)[C@H](Cc2ccc(N)nc2)NC(=O)[C@H](CC(N)=O)NC(=O)[C@H](Cc2c[nH]c3ncccc23)NC(=O)[C@H](C(C)C)NC(=O)[C@H](Cc2cccc(Cl)c2)N(C)C(=O)[C@H](C(C)C)NC(=O)[C@H](C)NC(=O)CSC[C@@H](C(=O)NCCOCCOCCOCCOCCC(N)=O)NC(=O)[C@H](Cc2ccc(O)cc2)N(C)C(=O)[C@H](Cc2ccncc2)NC(=O)[C@H](CCCCN2CCOCC2)NC(=O)[C@H](CCCNC(=N)N)NC(=O)[C@H]([C@@H](C)CC)NC1=O` [compound 3] ({CH2CO}-AV[NMePhe(3-Cl)]V[Trp(7-aza)]N[3Pal(6-NH2)]Y(Me)IIR[Nle(6-morpholino)][4Pal][NMeY]C[PEG4]-NH2; thioether N-15), the Kd was 2.63 nM in test [1] and 16.1 nM in test [2] (pH 6.0, single-cycle kinetics).

For `CC[C@H](C)[C@@H]1NC(=O)[C@H](Cc2ccc(OC)cc2)NC(=O)[C@H](Cc2ccc(N)nc2)NC(=O)[C@H](CC(N)=O)NC(=O)[C@H](Cc2c[nH]c3ncccc23)NC(=O)[C@H](C(C)C)NC(=O)[C@H](Cc2cccc(Cl)c2)N(C)C(=O)[C@H](C(C)C)NC(=O)[C@H](C)NC(=O)CSC[C@@H](C(=O)NCCOCCOCCOCCOCCC(N)=O)NC(=O)[C@H](Cc2ccc(O)cc2)N(C)C(=O)[C@H](Cc2ccncc2)NC(=O)[C@H](CCCCN2CCOCC2)NC(=O)[C@H](CCCCN2CCOCC2)NC(=O)[C@H]([C@@H](C)CC)NC1=O` [compound 4] ({CH2CO}-AV[NMePhe(3-Cl)]V[Trp(7-aza)]N[3Pal(6-NH2)]Y(Me)II[Nle(6-morpholino)][Nle(6-morpholino)][4Pal][NMeY]C[PEG4]-NH2; thioether N-15), the Kd in test [1] came to 2.19 nM; in test [2] (pH 6.0, single-cycle kinetics), 29.7 nM.

Consider `CC[C@H](C)[C@@H]1NC(=O)[C@H](Cc2ccc(OC)cc2)NC(=O)[C@H](Cc2ccc(N)nc2)NC(=O)[C@H](CC(N)=O)NC(=O)[C@H](Cc2c[nH]c3ncccc23)NC(=O)[C@H](C(C)C)NC(=O)[C@H](Cc2cccc(Cl)c2)N(C)C(=O)[C@H](C(C)C)NC(=O)[C@H](C)NC(=O)CSC[C@@H](C(=O)NCCOCCOCCOCCOCCC(N)=O)NC(=O)[C@H](Cc2ccc(O)cc2)N(C)C(=O)[C@H](Cc2ccncc2)NC(=O)[C@H](CCCCNC(=O)N2CCN(CC(=O)O)CC2)NC(=O)[C@H](CCCCN2CCOCC2)NC(=O)[C@H]([C@@H](C)CC)NC1=O` [compound 5] ({CH2CO}-AV[NMePhe(3-Cl)]V[Trp(7-aza)]N[3Pal(6-NH2)]Y(Me)II[Nle(6-morpholino)]K([CO-Piperazinyl(4-CH2COOH)])[4Pal][NMeY]C[PEG4]-NH2; thioether N-15), for which the Kd in test [1] came to 6.31 nM; in test [2] (pH 6.0, single-cycle kinetics), 117 nM.

Regarding `CC[C@H](C)[C@@H]1NC(=O)[C@H](Cc2ccc(OC)cc2)NC(=O)[C@H](Cc2ccc(N)nc2)NC(=O)[C@H](CC(N)=O)NC(=O)[C@H](Cc2cn(CC(=O)O)c3ccccc23)NC(=O)[C@H](C(C)C)NC(=O)[C@H](Cc2cccc(Cl)c2)N(C)C(=O)[C@H](C(C)C)NC(=O)[C@H](C)NC(=O)CSC[C@@H](C(=O)NCCOCCOCCOCCOCCC(N)=O)NC(=O)[C@H](Cc2ccc(O)cc2)N(C)C(=O)[C@H](Cc2ccncc2)NC(=O)[C@H](CCCCN2CCOCC2)NC(=O)[C@H](CCCCN2CCOCC2)NC(=O)[C@H]([C@@H](C)CC)NC1=O` [compound 6] ({CH2CO}-AV[NMePhe(3-Cl)]V[Trp(1-CH2COOH)]N[3Pal(6-NH2)]Y(Me)II[Nle(6-morpholino)][Nle(6-morpholino)][4Pal][NMeY]C[PEG4]-NH2; thioether N-15), the dissociation constant Kd in test [1] came out at 6.56 nM; in test [2] (pH 6.0, single-cycle kinetics), 21 nM.

As to `CC[C@H](C)[C@@H]1NC(=O)[C@H](Cc2ccc(OC)cc2)NC(=O)[C@H](Cc2ccc(O)cc2)NC(=O)[C@H](CC(N)=O)NC(=O)[C@H](Cc2c[nH]c3ccccc23)N(C)C(=O)[C@H](C(C)C)NC(=O)[C@H](Cc2cccc(Cl)c2)N(C)C(=O)[C@H](C(C)C)NC(=O)[C@H](C)NC(=O)CSC[C@@H](C(=O)NCCOCCOCCOCCOCCC(N)=O)NC(=O)[C@H](Cc2ccc(O)cc2)N(C)C(=O)[C@H](Cc2ccccc2)NC(=O)[C@H](CCCNC(=N)N)NC(=O)[C@H](CCC(=O)NCCCN)NC(=O)[C@H]([C@@H](C)CC)NC1=O` [compound 171], in test [2] (pH 6.0, single-cycle kinetics), the Kd came out at 0.678 nM.

`CC[C@H](C)[C@@H]1NC(=O)[C@H](Cc2ccc(OC)cc2)NC(=O)[C@H](CCCNC(=N)N)NC(=O)[C@H](CC(N)=O)NC(=O)[C@H](Cc2c[nH]c3ccccc23)N(C)C(=O)[C@H](C(C)C)NC(=O)[C@H](Cc2cccc(Cl)c2)N(C)C(=O)[C@H](C(C)C)NC(=O)[C@H](C)NC(=O)CSC[C@@H](C(=O)NCCOCCOCCOCCOCCC(N)=O)NC(=O)[C@H](Cc2ccc(O)cc2)N(C)C(=O)[C@H](Cc2ccccc2)NC(=O)[C@H](CCCNC(=N)N)NC(=O)[C@H](CCCCN)NC(=O)[C@H]([C@@H](C)CC)NC1=O` [compound 173] ({CH2CO}-AV[NMePhe(3-Cl)]V[NMeW]NRY(Me)IIKRF[NMeY]C[PEG4]-NH2; thioether N-15): the Kd in test [2] (pH 6.0, single-cycle kinetics) came out at 13.3 nM.

On to `CC[C@H](C)[C@@H]1NC(=O)[C@H](Cc2ccc(O)cc2)NC(=O)[C@H](Cc2ccc(N)nc2)NC(=O)[C@H](CC(N)=O)NC(=O)[C@H](Cc2c[nH]c3ccccc23)N(C)C(=O)[C@H](C(C)C)NC(=O)[C@H](Cc2ccccc2)N(C)C(=O)[C@H](C(C)C)NC(=O)[C@H](C)NC(=O)CSC[C@@H](C(=O)NCC(=O)N[C@H](CCC(=O)O)C(=O)N[C@H](CCC(=O)O)C(=O)N[C@H](CCC(=O)O)C(=O)N[C@H](CO)C(=O)N[C@H](CO)C(=O)N[C@@H](CCCCN=[N+]=[N-])C(N)=O)NC(=O)[C@H](Cc2ccc(C(=O)O)cc2)N(C)C(=O)[C@H](Cc2ccc(O)cc2)NC(=O)[C@H](CCCNC(=N)N)NC(=O)[C@H](CCCCN)NC(=O)[C@H]([C@@H](C)CC)NC1=O` [compound 186], for which, in test [2] (SPR, pH 6.0, Table 1-3-2-2), the Kd is 145 nM.

For orientation: Kd means the equilibrium constant for the complex coming apart.
